Reference: US20120053211A1, “TREATMENT OF PANCREATIC CANCER” (ARDEA BIOSCIENCES, INC., priority 2009, published 2012)
“And” between values parts separate entries of the source, which are not always exact repeats. Equal values may be shown once.

System: Bx-PC3-e242 Xenograft
Test: Bx-PC3-e242 Xenograft Study
Format: in vivo, female (nu/nu) mice
Parameters: key to Mean BW Nadir: — indicates no decrease in mean body weight was observed
Details: for % TGI: D15, compared to Group 1; for % TGD: [(T − C)/C] × 100; for MTV (n) D54: day of TGD analysis, excludes animals reaching endpoint; for MTV (n) D15: day of TGI analysis, includes animals at endpoint; for T − C: difference of median TTE versus control group (Group 1); for Mean TTE / Median TTE: endpoint 1500 mm^3; for Individual TTE values: individual animals 1-9, endpoint 1500 mm^3, study duration 54 days; for Mean BW Nadir: lowest group mean body weight as % change from Day 1; for No. of NTR: non-treatment-related death; for No. of PR: partial regression, 9 animals
Method: In vivo activity of compound B: Bx-PC3-e242 Xenograft Study Bx-PC3-e242 cells were injected into 11-week-old female (nu/nu) mice. Tumors were allowed to reach 115.5-116.7 mm^3 (group mean tumor range); 63-196 mm^3 (Individual Tumor Range) in size (23 days) and mice were randomized into 6 groups of 9 animals (body weight range 18.0-25.2 g). Mice were treated by according to the chart below:
Tumors were measured with a caliper and tumor volumes calculated using the following formula:
where w=width and l=length in mm of a tumor. Tumor weight is estimated with the assumption that 1 mg is equivalent to 1 mm^3 of tumor volume.
Each animal was euthanized when the tumor reached endpoint size or at the end of the study, whichever comes first. The time to endpoint (TTE) for each mouse is calculated according to the following equation
The study endpoint was 1500 mm^3, with a study duration of 54 days.
Treatment may cause partial regression (PR) or complete regression (CR) of the tumor in an animal. In a PR response, the tumor volume is 50% or less of its Day 1 volume for three consecutive measurements during the course of the study.
Treatment outcome is evaluated by tumor growth delay (TGD), defined as the increase in the median time to endpoint (TTE) in a treatment group compared to the control group:
Response to treatment was also evaluated for tumor growth inhibition (TGI), defined as the difference between the median tumor volumes (MTVs) of treated and control mice.
Animals were weighed daily for the first five days of the study and then twice weekly. The mice are observed frequently for overt signs of any adverse, treatment-related side effects, and clinical signs of toxicity were recorded when observed.

[1] = Group 3: Cmpd B 25 mg/kg po qd × 14
[2] = Group 4: Cmpd B 6.25 mg/kg po bid × 14 first day 1 dose
[3] = Group 6: Cmpd B 12.5 mg/kg po, then 6.25 mg/kg po bid × 11 first day 1 dose (start on day 4)

Q: What does the source list for `Cc1c(Nc2ccc(I)cc2F)c(NS(=O)(=O)C2CC2)cn(C)c1=O` [Compound B, N-(4-(2-fluoro-4-iodophenylamino)-1,5-dimethyl-6-oxo-1,6-dihydropyridin-3-yl)cyclopropanesulfonamide]?
A: Weekly Median Tumor Volume (number of animals in parentheses) (D1, Group 3: Cmpd B 25 mg/kg po qd × 14): 108 (9) mm^3; Weekly Median Tumor Volume (number of animals in parentheses) (D1, Group 4: Cmpd B 6.25 mg/kg po bid × 14 first day 1 dose): 108 (9) mm^3; Weekly Median Tumor Volume (number of animals in parentheses) (D1, Group 5: Cmpd B 9 mg/kg po): 108 (9) mm^3; Weekly Median Tumor Volume (number of animals in parentheses) (D1, Group 6: Cmpd B 12.5 mg/kg po, then 6.25 mg/kg po bid × 11 first day 1 dose (start on day 4)): 75 (9) mm^3; Weekly Median Tumor Volume (number of animals in parentheses) (D5, Group 3: Cmpd B 25 mg/kg po qd × 14): 75 (9) mm^3; Weekly Median Tumor Volume (number of animals in parentheses) (D5, Group 4: Cmpd B 6.25 mg/kg po bid × 14 first day 1 dose): 75 (9) mm^3; Weekly Median Tumor Volume (number of animals in parentheses) (D5, Group 5: Cmpd B 9 mg/kg po): 63 (9) mm^3; Weekly Median Tumor Volume (number of animals in parentheses) (D5, Group 6: Cmpd B 12.5 mg/kg po, then 6.25 mg/kg po bid × 11 first day 1 dose (start on day 4)): 75 (9) mm^3; Weekly Median Tumor Volume (number of animals in parentheses) (D10, Group 3: Cmpd B 25 mg/kg po qd × 14): 196 (9) mm^3; Weekly Median Tumor Volume (number of animals in parentheses) (D10, Group 4: Cmpd B 6.25 mg/kg po bid × 14 first day 1 dose): 196 (9) mm^3; Weekly Median Tumor Volume (number of animals in parentheses) (D10, Group 5: Cmpd B 9 mg/kg po): 172 (9) mm^3; Weekly Median Tumor Volume (number of animals in parentheses) (D10, Group 6: Cmpd B 12.5 mg/kg po, then 6.25 mg/kg po bid × 11 first day 1 dose (start on day 4)): 259 (9) mm^3; % TGI [1]: 82%; % TGI [2]: 89%; % TGI (Group 5: Cmpd B 9 mg/kg po): 89%; % TGI [3]: 84%; Weekly Median Tumor Volume (number of animals in parentheses) (D15, Group 3: Cmpd B 25 mg/kg po qd × 14): 196 (9) mm^3; Weekly Median Tumor Volume (number of animals in parentheses) (D15, Group 4: Cmpd B 6.25 mg/kg po bid × 14 first day 1 dose): 126 (9) mm^3; Weekly Median Tumor Volume (number of animals in parentheses) (D15, Group 5: Cmpd B 9 mg/kg po): 126 (9) mm^3; Weekly Median Tumor Volume (number of animals in parentheses) (D15, Group 6: Cmpd B 12.5 mg/kg po, then 6.25 mg/kg po bid × 11 first day 1 dose (start on day 4)): 172 (9) mm^3; Weekly Median Tumor Volume (number of animals in parentheses) (D22, Group 3: Cmpd B 25 mg/kg po qd × 14): 446 (9) mm^3; Weekly Median Tumor Volume (number of animals in parentheses) (D22, Group 4: Cmpd B 6.25 mg/kg po bid × 14 first day 1 dose): 288 (9) mm^3; Weekly Median Tumor Volume (number of animals in parentheses) (D22, Group 5: Cmpd B 9 mg/kg po): 288 (9) mm^3; Weekly Median Tumor Volume (number of animals in parentheses) (D22, Group 6: Cmpd B 12.5 mg/kg po, then 6.25 mg/kg po bid × 11 first day 1 dose (start on day 4)): 550 (9) mm^3; Weekly Median Tumor Volume (number of animals in parentheses) (D29, Group 3: Cmpd B 25 mg/kg po qd × 14): 864 (5) mm^3; Weekly Median Tumor Volume (number of animals in parentheses) (D29, Group 4: Cmpd B 6.25 mg/kg po bid × 14 first day 1 dose): 509 (8) mm^3; Weekly Median Tumor Volume (number of animals in parentheses) (D29, Group 5: Cmpd B 9 mg/kg po): 566 (8) mm^3; Weekly Median Tumor Volume (number of animals in parentheses) (D29, Group 6: Cmpd B 12.5 mg/kg po, then 6.25 mg/kg po bid × 11 first day 1 dose (start on day 4)): 1008 (9) mm^3; Weekly Median Tumor Volume (number of animals in parentheses) (D36, Group 3: Cmpd B 25 mg/kg po qd × 14): 867 (4) mm^3; Weekly Median Tumor Volume (number of animals in parentheses) (D36, Group 4: Cmpd B 6.25 mg/kg po bid × 14 first day 1 dose): 600 (6) mm^3; Weekly Median Tumor Volume (number of animals in parentheses) (D36, Group 5: Cmpd B 9 mg/kg po): 600 (5) mm^3; Weekly Median Tumor Volume (number of animals in parentheses) (D36, Group 6: Cmpd B 12.5 mg/kg po, then 6.25 mg/kg po bid × 11 first day 1 dose (start on day 4)): 900 (2) mm^3; Weekly Median Tumor Volume (number of animals in parentheses) (D43, Group 3: Cmpd B 25 mg/kg po qd × 14): 1015 (2) mm^3; Weekly Median Tumor Volume (number of animals in parentheses) (D43, Group 4: Cmpd B 6.25 mg/kg po bid × 14 first day 1 dose): 1268 (3) mm^3; Weekly Median Tumor Volume (number of animals in parentheses) (D43, Group 5: Cmpd B 9 mg/kg po): 1008 (1) mm^3; Weekly Median Tumor Volume (number of animals in parentheses) (D43, Group 6: Cmpd B 12.5 mg/kg po, then 6.25 mg/kg po bid × 11 first day 1 dose (start on day 4)): 1470 (1) mm^3; Weekly Median Tumor Volume (number of animals in parentheses) (D50, Group 3: Cmpd B 25 mg/kg po qd × 14): 1327 (2) mm^3; Weekly Median Tumor Volume (number of animals in parentheses) (D50, Group 4: Cmpd B 6.25 mg/kg po bid × 14 first day 1 dose): 976 (2) mm^3; Weekly Median Tumor Volume (number of animals in parentheses) (D50, Group 5: Cmpd B 9 mg/kg po): 1470 (1) mm^3; % TGD [1]: 62%; % TGD [2]: 91%; % TGD (Group 5: Cmpd B 9 mg/kg po): 94%; % TGD [3]: 69%; MTV (n) D54 [1]: 1470 (1) mm^3; MTV (n) D54 [2]: 486 (1) mm^3; MTV (n) D15 [1]: 196 (9) mm^3; MTV (n) D15 [2]: 126 (9) mm^3; MTV (n) D15 (Group 5: Cmpd B 9 mg/kg po): 126 (9) mm^3; MTV (n) D15 [3]: 172 (9) mm^3; T − C [1]: 12.1 days; T − C [2]: 17.8 days; T − C (Group 5: Cmpd B 9 mg/kg po): 18.3 days; T − C [3]: 13.4 days; Mean TTE [1]: 35.4 days; Median TTE [1]: 31.6 days; Mean TTE [2]: 40.7 days; Median TTE [2]: 37.3 days; Mean TTE (Group 5: Cmpd B 9 mg/kg po): 37.8 days; Median TTE (Group 5: Cmpd B 9 mg/kg po): 37.8 days; Mean TTE [3]: 34.9 days; Median TTE [3]: 32.9 days; Individual TTE values (* = non-treatment-related death, Group 4: Cmpd B 6.25 mg/kg po bid × 14 first day 1 dose): 54.0 days and 51.4 days and 50.0 days and 35.1 days and 36.9 days and *40.0 days and 29.0 days and 37.7 days and 31.5 days; Individual TTE values [1]: 23.4 days and 28.3 days and 54.0 days and 50.1 days and 26.5 days and 31.6 days and 38.2 days and 40.2 days and 26.8 days; Individual TTE values (Group 5: Cmpd B 9 mg/kg po): 31.8 days and 42.8 days (2×) and 33.8 days and 41.7 days and 50.3 days and 30.5 days and 28.2 days and 37.8 days; Individual TTE values [3]: 32.9 days and 45.6 days and 35.7 days and 29.7 days and 33.3 days and 41.0 days and 31.1 days and 31.8 days and 32.8 days; Mean BW Nadir [1]: —; Mean BW Nadir [2]: —; Mean BW Nadir (Group 5: Cmpd B 9 mg/kg po): —; Mean BW Nadir [3]: —; Mean TV(n) (n = 1, Group 5: Cmpd B 9 mg/kg po): 1913 mm^3; Mean TV(n) (n = 2, Group 3: Cmpd B 25 mg/kg po qd × 14): 1635 mm^3; Mean TV(n) (n = 2, Group 4: Cmpd B 6.25 mg/kg po bid × 14 first day 1 dose): 1076 mm^3; No. of NTR [1]: 0; No. of NTR [2]: 1; No. of NTR (Group 5: Cmpd B 9 mg/kg po): 0; No. of NTR [3]: 0; No. of PR [1]: 0; No. of PR [2]: 0; No. of PR (Group 5: Cmpd B 9 mg/kg po): 0; No. of PR [3]: 0
